US20070016970A1, “Guinea pig-chymase” (priority 2005, published 2007)
Read-outs that look alike come from different tables or passages of the source.

Assays:
Human Chymase coli = molecular target: T1, Human Chymase coli (Homo sapiens, UniProt P23946); test: Assay for chymase inhibition (fluorogenic AAPF-AMC substrate), human chymase; type: biochemical
T1 construct: Chymase purified from human skin mast cells was obtained from Calbiochem; purchased Calbiochem (Merck Biosciences, San Diego, Calif., USA); host or cells: human skin mast cells
T1 sequence (P23946 22-247): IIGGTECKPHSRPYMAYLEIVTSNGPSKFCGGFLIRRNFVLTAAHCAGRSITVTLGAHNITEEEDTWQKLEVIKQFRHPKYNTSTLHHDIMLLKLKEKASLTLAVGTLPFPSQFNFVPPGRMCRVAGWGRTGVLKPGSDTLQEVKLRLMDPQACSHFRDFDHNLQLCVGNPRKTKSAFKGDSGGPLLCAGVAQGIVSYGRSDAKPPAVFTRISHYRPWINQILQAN
Experimental: The peptide was synthesized with a purity of 95% from Bachem, Bubendorf, Switzerland). Chymase purified from human skin mast cells was obtained from Calbiochem (Merck Biosciences, San Diego, Calif., USA). The assay buffer was 0.15 M NaCl, 0.05M, Tris HCl, 0.05% CHAPS, 0.1 mg/ml Heparin (Heparin sodium, Sigma, porcine intestinal mucosa), 0.02mM AAPF-substrate, 1 nM Chymase at pH 7.4. The assay was performed in 96-well plates (Packard Optiplate), with a 0.05 ml volume at room temperature. Chymase activity was indicated by the initial rate of increase in fluorescence at 340/440 nm (excitation/emission) from free 7-amino-4-methylcoumarin released from the substrate. Inhibition of the activity by inhibitory compounds was read after 30 min pre-incubation with the chymase at room temperature in assay buffer without AAPF-substrate. The assay was then started by addition of the indicated concentration of AAPF-substrate.

guinea pig chymase = molecular target: T2, guinea pig chymase (Cavia porcellus, UniProt A7WPL7, G52S); test: Assay for chymase inhibition (fluorogenic AAPF-AMC substrate), guinea pig chymase; type: biochemical; settings: recombinant guinea pig chymase; 0.02 mM AAPF-substrate, 1 nM chymase, pH 7.4, 30 min pre-incubation, room temperature; read-out: Inhibition of guinea pig chymase activity, IC50, GP chymase
T2 construct: Thereby the mature guinea pig chymase with the correct N-terminus was formed; 26-amino acid N-terminal polypeptide with 6xHis tag and enterokinase cleavage site (N, cleaved yes); made in house
T2 sequence (A7WPL7 22-247 G52S): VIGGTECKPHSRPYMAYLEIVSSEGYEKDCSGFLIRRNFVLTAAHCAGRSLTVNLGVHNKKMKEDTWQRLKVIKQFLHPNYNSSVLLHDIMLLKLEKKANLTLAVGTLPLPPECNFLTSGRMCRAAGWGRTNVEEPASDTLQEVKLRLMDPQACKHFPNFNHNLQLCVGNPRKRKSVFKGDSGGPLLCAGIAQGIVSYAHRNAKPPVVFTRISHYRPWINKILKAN

| IC50 (Human Chymase coli) [nM] | IC50 (guinea pig chymase) [nM] | IC50 (Human Chymase coli; human chymase, 0.02 mM AAPF-substrate, 1 nM chymase, pH 7.4, 30 min pre-incubation, room temperature, read-out: Inhibition of chymase activity, IC50, Human Chymase coli) [nM] | SMILES |
| --- | --- | --- | --- |
| 590 | 345 | – | COC(=O)c1ccc(NS(=O)(=O)c2sc3ccc(F)cc3c2C)c(S(C)(=O)=O)c1 [TY-51076, 4-(5-Fluoro-3-methyl-benzothiophene-2-sulfonylamino)-3-methanesulfonyl-benzoic acid methyl ester] |
| – | 940 | 570 | CC(=O)NCCc1c(C(c2ccccc2)c2c(O)c3ccccc3n(C)c2=O)[nH]c2ccccc12 (stereo not shown) [SF2809-V, N-(2-{2-[(4-Hydroxy-1-methyl-2-oxo-1,2-dihydro-quinolin-3-yl)-phenyl-methyl]-1H-indol-3-yl}-ethyl)-acetamide] |
